Measurements from patent US20230399661A1, “SHUTTLE AGENT PEPTIDES OF MINIMAL LENGTH AND VARIANTS THEREOF ADAPTED FOR TRANSDUCTION OF CAS9-RNP AND OTHER NUCLEOPROTEIN CARGOS” (priority 2020, published 2023).

Experiments:
[1] = test system: CFF-16HBEge cells; assay: Cas9-RNP delivery, B2M genome editing; format: cell-based, Human; conditions: B2M knockout, versus non-treated negative control
Procedure: HeLa cells were plated (10 000 cells/well) in a 96 well-plate the day prior to the experiment in DMEM containing 10% FBS. CFF-16HBEge cells were plated (10 000 cells/well) in a 96 well-plate the day prior to the experiment in Alpha-MEM containing 10% FBS.
For Cas9-RNP or ABE-Cas9-RNP transduction, a mix of Cas9-NLS or ABE-Cas9 recombinant protein (2.5 μM) complexed with a crRNA/tracrRNA (2 μM) targeting the beta-2 microglobulin (B2M) gene were co-incubated with 10-20 μM of synthetic peptide shuttle agent in a final volume of 50 μL completed with PBS. Cells were washed once with PBS and the shuttle/Cas9-RNP complex was added to the cells for and incubated for 60 to 90 seconds. Then 100 μL of DMEM (HeLa) or Alpha-MEM (CFF-16HBEge) containing 10% FBS was added to the mix. Cells were then immediately washed once with PBS and incubated in DMEM (HeLa) or Alpha-MEM (CFF-16HBEge) containing 10% FBS.
Genome editing events resulting in the absence of B2M protein (knockout) at the cell surface were determined by flow cytometry 6 days post-transduction. Cells were washed once with PBS and incubated with the anti-B2 microglobulin antibody (PE conjugated) (0.5 μL of anti-B2M-PE in […] 0.5% BSA/PBS) for 45 minutes at room temperature. Cells were washed twice with PBS and detached with 50 µL of Trypsin-EDTA for 10 minutes at 37° C. then inactivated by adding 100 μL of media containing 10% FBS. The percentage of knockout cells (cells without B2M antibody signal) was determined by flow cytometry.
A similar genome editing experiment as in Example 6 was performed in the Human Bronchial Epithelial cell line model of cystic fibrosis, CFF-16HBEge.
Further transduction experiments in CFF-16HBEge cells were performed to compare the ability of shuttle agents to deliver functional Cas9-RNP genome editing versus ABE-Cas9-RNP base editing complexes. Variants of the shuttle agent FSD10 (FIG. 8A) were tested in parallel, and genome editing/base editing results as evaluated by next-generation sequencing (NGS) are shown in FIGS. 8B and 8C for Cas9-RNP and ABE-Cas9-RNP, respectively.

[2] = test system: HeLa cells; assay: GFP-NLS transduction in the presence or absence of Cas9-RNP complex, flow cytometry; format: cell-based, Human; set-up: GFP transduction efficiency: concentration or dose not given beside the values; conditions: for resistance/sensitivity of GFP transduction to inhibition by Cas9-RNP: presence vs absence of Cas9-RNP
Procedure: HeLa cells were plated (20 000 cells/well) in a 96 well-plate the day prior to the experiment in DMEM containing 10% FBS. A mix was prepared containing a synthetic peptide shuttle agent (10-30 μM), the GFP-NLS (10 μM) with or without a Cas9-NLS recombinant protein (2.5 μM) complexed with a crRNA/tracrRNA (2 μM) targeting the beta-2 microglobulin (B2M) gene and completed to 50 μL with PBS. Cells were washed once with PBS and the shuttle/GFP-NLS/Cas9-RNP mix was added to the cells and incubated for one minute. Then 100 μL DMEM containing 10% FBS was added to the mix. Cells were then immediately washed once with PBS and incubated in DMEM containing 10% FBS for two hours. Cells were the analyzed by flow cytometry.
To better understand the inhibitory effect of Cas9-RNP on shuttle agent transduction activity, HeLa cells were incubated with different peptides/shuttle agents and GFP cargo, in the presence or absence of Cas9-RNP, and delivery of GFP was assessed by flow cytometry, as described in Example 1. […] For some shuttle agents, the effect was particularly striking. For example, the GFP transduction efficiency for FSD268 decreased from 92% to 29%, the GFP transduction efficiency for FSD250 decreased from 83% to 13%, the GFP transduction efficiency for FSD10 decreased from 76% to 22%, and the GFP transduction efficiency for FSD395 decreased from 91% to 17%. […] Structure-activity relationships were explored further by repeating the above transduction experiments with shuttle agent variants sharing the same “core” amphipathic cationic alpha helical region as FSD10-15 (FIG. 4A), CM18 (FIG. 4B), and FSD356 (FIG. 4C).

| Substance | resistance/sensitivity of GFP transduction to inhibition by Cas9-RNP [2] | also measured |
| --- | --- | --- |
| FSD322: synthetic peptide shuttle agent (KWKLAKAWSRALKLWGGSGGGSARAQARQA; FSD322) | – | genome editing with Cas9-RNP as cargo [1]: failed to show any increase in genome editing |
| FSD424: FSD10-15 with flanking glycine/serine-rich residues (KWKLARAFARAIKKLGGSGGGSGGSGGGS; FSD424) | retained the peptide's resistance to Cas9-RNP | GFP transduction activity relative to FSD10-15 ([2]; FIG. 4A): improving GFP transduction activity over FSD10-15 |
| FSD241: shuttle agent: FSD10-15 core, C-terminal glycine/serine-rich linker fused to a second cationic domain (KWKLARAFARAIKKLGGSGGGSYARAAARQARA; FSD241) | more sensitive to inhibition by Cas9-RNP | – |
| FSD251: shuttle agent containing three negatively-charged glutamate (E) residues in the peptide's C-terminal region (KWKLLKLWSRLLKLWGGSGGGSAEAAEQAE; FSD251) | least sensitivity to Cas9-RNP inhibition | – |
| CM18-TAT: CM18-based shuttle agent having high C-terminal positive charge density (KWKLFKKIGAVLKVLTTGYGRKKRRQRRR; CM18-TAT) | particularly marked sensitivities to inhibition by Cas9-RNP | – |
| FSD189: shuttle agent variant sharing the same core region as FSD174; higher C-terminal positive charge density (LLKIWSRLIKIWTQGRRLGRAQRAQRA; FSD189) | generally more sensitive to Cas9-RNP inhibition | – |
| FSD268: synthetic peptide shuttle agent (KWKLLKLWSRLLKLWGGSGGGSQARAQARQAR; FSD268) | – | GFP transduction efficiency ([2]; absence of Cas9-RNP): 92%; GFP transduction efficiency ([2]; presence of Cas9-RNP): 29% |
| FSD446: shuttle agent with N-terminal segment identical to FSD356 and a C-terminal non-cationic hydrophilic segment (KWKLLKLWSRLLKLWGGSGGGSHTSDQTN; FSD446) | – | GFP transduction efficiency ([2]; presence of Cas9-RNP): 34% |
| FSD210: shuttle agent: FSD10-15 core, C-terminal glycine/serine-rich linker fused to a second cationic domain (KWKLARAFARAIKKLGGSGGGSRRLKAKRAKA; FSD210) | more sensitive to inhibition by Cas9-RNP | – |
| FSD397: synthetic peptide shuttle agent (KLKLAKALAKALKKLGGSGGGSQAKAQAKQAK; FSD397) | – | genome editing with Cas9-RNP as cargo [1]: failed to show any increase in genome editing |
| FSD174: synthetic peptide shuttle agent having higher C-terminal positive charge density (LLKIWSRLIKIWTQGRRLGGSGGGSARAARQAR; FSD174) | particularly sensitive to the inhibitory effect of Cas9-RNP | GFP transduction efficiency ([2]; absence of Cas9-RNP): 66%; GFP transduction efficiency ([2]; presence of Cas9-RNP): 11%; resistance/sensitivity of GFP transduction to inhibition by Cas9-RNP ([2]; listed as FSD 174): generally more sensitive to Cas9-RNP inhibition |
| FSD246: shuttle agent with N-terminal segment identical to FSD356; increased C-terminal positive charge density (KWKLLKLWSRLLKLWGGSGGGSYARAAARKAKRA; FSD246) | increased shuttle agent sensitivity to inhibition by Cas9-RNP | – |
| FSD356: shuttle agent whose last three C-terminal residues are QAG (KWKLLKLWSRLLKLWGGSGGGSQAG; FSD356) | more resistant | GFP transduction efficiency ([2]; presence of Cas9-RNP): 51% |
| FSD187: shuttle agent variant sharing the same core region as FSD174; higher C-terminal positive charge density (LLKIWSRLIKIWTQGRRLGARKPRKSRQ; FSD187) | generally more sensitive to Cas9-RNP inhibition | – |
| FSD296: shuttle agent with N-terminal segment identical to FSD356; polar residues (e.g., Q) between the C-terminal positively-charged residues (KWKLLKLWSRLLKLWQQGGSGGGSQARAQARQAR; FSD296) | increased shuttle agent sensitivity to inhibition by Cas9-RNP | – |
| FSD10-15: 15-amino acid fragment of several longer shuttle agents, including FSD375, FSD10 and FSD210 (KWKLARAFARAIKKL; FSD10-15) | more resistant | GFP transduction efficiency ([2]; absence of Cas9-RNP): 21%; GFP transduction efficiency ([2]; presence of Cas9-RNP): 24% |
| CM18-L2-PTD4: CM18-based shuttle agent with lower C-terminal positive charge density (KWKLFKKIGAVLKVLTTGGGSGGGSYARAAARQARA; CM18-L2-PTD4) | substantially more resistant to inhibition by Cas9-RNP | – |
| FSD432: shuttle agent: FSD10-15 core, C-terminal glycine/serine-rich linker fused to a second cationic domain (KWKLARAFARAIKKLGGSGGGSQAKAQAKQAK; FSD432) | more sensitive to inhibition by Cas9-RNP | – |
| FSD422: FSD10-15 with flanking histidine residues in place of the glycine/serine-rich residues (HHHHHHKWKLARAFARAIKKLHHHHHH; FSD422) | did not maintain the same level of Cas9-RNP resistance | – |
| FSD440: CM18 with flanking glycine/serine-rich residues (GGSGGGSKWKLFKKIGAVLKVLTTGGGSGGGS; FSD440) | retained the peptide's resistance to Cas9-RNP | GFP delivery score ([2]; FIGS. 3 and 4B, presence or absence of Cas9-RNP not stated): 3.6 |
| His-CM18-Transportan: CM18-based shuttle agent with lower C-terminal positive charge density (HHHHHHKWKLFKKIGAVLKVLTTGGWTLNSAGYLLKINLKALAALAKKIL; His-CM18-Transportan) | substantially more resistant to inhibition by Cas9-RNP | – |
| His-CM18-9Arg: CM18-based shuttle agent having high C-terminal positive charge density (HHHHHHKWKLFKKIGAVLKVLTTGRRRRRRRRR; His-CM18-9Arg) | particularly marked sensitivities to inhibition by Cas9-RNP | – |
| FSD357: FSD356 with the last three C-terminal residues (QAG) replaced with three positively-charged arginine residues (RRR) (KWKLLKLWSRLLKLWGGSGGGSRRR; FSD357) | – | GFP transduction efficiency ([2]; presence of Cas9-RNP): 4% |
| His-CM18-TAT: CM18-based shuttle agent having high C-terminal positive charge density (HHHHHHKWKLFKKIGAVLKVLTTGYGRKKRRQRRR; His-CM18-TAT) | particularly marked sensitivities to inhibition by Cas9-RNP | – |
